Measurements reported in patent US8269015B2, “4-azetidinyl-1-heteroaryl-cyclohexane antagonists of CCR2” (Janssen Pharmaceutica N.V., priority 2009, dated 2012).

Biological target: T1, CCR2 (Homo sapiens, UniProt P41597)
T1 construct: host or cells: THP-1 (human monocytic cell line)
T1 sequence (P41597 1-360 isoform P41597-2): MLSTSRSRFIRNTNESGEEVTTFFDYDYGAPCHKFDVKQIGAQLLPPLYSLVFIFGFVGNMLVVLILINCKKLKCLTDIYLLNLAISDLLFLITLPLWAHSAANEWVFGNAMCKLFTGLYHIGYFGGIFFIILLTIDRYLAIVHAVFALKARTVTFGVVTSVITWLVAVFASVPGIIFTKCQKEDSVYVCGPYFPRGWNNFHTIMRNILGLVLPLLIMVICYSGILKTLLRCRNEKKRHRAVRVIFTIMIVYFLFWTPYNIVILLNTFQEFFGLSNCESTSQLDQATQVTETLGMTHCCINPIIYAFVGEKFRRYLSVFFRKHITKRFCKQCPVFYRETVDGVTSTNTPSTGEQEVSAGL
Assay: MCP-1 Receptor Binding Assay in THP-1 Cells (125I labeled MCP-1)
Conditions: 0.5 nM 125I labeled MCP-1, 2 hours at 30° C., read-out: Inhibition of MCP-1 Binding IC50, CCR2 Binding
Experimental: Compounds of the invention were subjected to various representative biological tests. […] MCP-1 Receptor Binding Assay in THP-1 Cells
Human monocytic cell line THP-1 cells were obtained from American Type Culture Collection (Manassas, Va., USA). […] The cell density was maintained […].
1 μM cold MCP-1 was used for nonspecific binding.

IC50 [nM]	Compound
25	COc1cnccc1C1CCC(N2CC(NC(=O)CNC(=O)c3cccc(C(F)(F)F)c3)C2)CC1 (stereo not shown) [Example 8, N-({1-[4-(3-Methoxy-pyridin-4-yl)-cyclohexyl]-azetidin-3-ylcarbamoyl}-methyl)-3-trifluoromethyl-benzamide]
1500	O=C(CNC(=O)c1cccc(C(F)(F)F)c1)NC1CN(C2CCC(c3nc4n(n3)CCCC4)CC2)C1 (mixture of isomers) [Example 63, N-({1-[4-(5,6,7,8-Tetrahydro-[1,2,4]-triazolo[1,5-a]pyridin-2-yl)-cyclohexyl]-azetidin-3-ylcarbamoyl}-methyl)-3-trifluoromethyl-benzamide]
510	O=C(CNC(=O)c1cccc(C(F)(F)F)c1)NC1CN(C2CCC(c3noc(C(Cl)(Cl)Cl)n3)CC2)C1 (stereo not shown) [Example 58, N-({1-[4-(5-Trichloromethyl-[1,2,4]oxadiazol-3-yl)-cyclohexyl]-azetidin-3-ylcarbamoyl}-methyl)-3-trifluoromethyl-benzamide]
7	COc1ccc(C2CCC(N3CC(NC(=O)CNC(=O)c4cccc(C(F)(F)F)c4)C3)CC2)cn1 (single isomer, unassigned) [Example 1a, N-({1-[4-(6-Methoxy-pyridin-3-yl)-cyclohexyl]-azetidin-3-ylcarbamoyl}-methyl)-3-trifluoromethyl-benzamide]
> 25000	O=C(CNC(=O)c1cccc(C(F)(F)F)c1)NC1CN(C2CCC(c3cc(O)ccn3)CC2)C1 (stereo not shown) [Example 12, N-({1-[4-(4-Hydroxy-pyridin-2-yl)-cyclohexyl]-azetidin-3-ylcarbamoyl}-methyl)-3-trifluoromethyl-benzamide]
50	Cc1ccc(O)c(C2CCC(N3CC(NC(=O)CNC(=O)c4cccc(C(F)(F)F)c4)C3)CC2)n1 (stereo not shown) [Example 6, N-({1-[4-(3-Hydroxy-6-methyl-pyridin-2-yl)-cyclohexyl]-azetidin-3-ylcarbamoyl}-methyl)-3-trifluoromethyl-benzamide]
840	CS(=O)(=O)Nc1cccc(C2CCC(N3CC(NC(=O)CNC(=O)c4cccc(C(F)(F)F)c4)C3)CC2)n1 (stereo not shown) [Example 26, N-({1-[4-(6-Methanesulfonylamino-pyridin-2-yl)-cyclohexyl]-azetidin-3-ylcarbamoyl}-methyl)-3-trifluoromethyl-benzamide]
380	CC(=O)Nc1cccnc1C1CCC(N2CC(NC(=O)CNC(=O)c3cccc(C(F)(F)F)c3)C2)CC1 (stereo not shown) [Example 18, N-({1-[4-(3-Acetylamino-pyridin-2-yl)-cyclohexyl]-azetidin-3-ylcarbamoyl}-methyl)-3-trifluoromethyl-benzamide]
> 25000	O=C(CNC(=O)c1ccccc1)NC1CN(C2CCC(c3c[nH]c4ccccc34)CC2)C1 (stereo not shown) [Example 49, N-({1-[4-(1H-Indol-3-yl)-cyclohexyl]-azetidin-3-ylcarbamoyl}-methyl)-benzamide]
52	O=C(CNC(=O)c1cccc(C(F)(F)F)c1)NC1CN(C2CCC(c3ccncc3O)CC2)C1 (stereo not shown) [Example 9, N-({1-[4-(3-Hydroxy-pyridin-4-yl)-cyclohexyl]-azetidin-3-ylcarbamoyl}-methyl)-3-trifluoromethyl-benzamide]

Further lines, the molecule ahead of its results:

Compound	IC50 [nM]
CN(C)c1ccncc1C1CCC(N2CC(NC(=O)CNC(=O)c3cccc(C(F)(F)F)c3)C2)CC1 (stereo not shown) [Example 29b, N-({1-[4-(4-Dimethylamino-pyridin-3-yl)-cyclohexyl]-azetidin-3-ylcarbamoyl}-methyl)-3-trifluoromethyl-benzamide]	10000
COc1ccc(C2(F)CCC(N3CC(NC(=O)CNC(=O)c4cccc(C(F)(F)F)c4)C3)CC2)cn1 (single isomer, unassigned) [Example 64a, N-({1-[4-Fluoro-4-(6-methoxy-pyridin-3-yl)-cyclohexyl]-azetidin-3-ylcarbamoyl}-methyl)-3-trifluoromethyl-benzamide]	110
Nc1ncccc1C1CCC(N2CC(NC(=O)CNC(=O)c3cccc(C(F)(F)F)c3)C2)CC1 (single isomer, unassigned) [Example 31a, N-({1-[4-(2-Amino-pyridin-3-yl)-cyclohexyl]-azetidin-3-ylcarbamoyl}-methyl)-3-trifluoromethyl-benzamide]	150
CS(=O)(=O)Nc1ccc(C2CCC(N3CC(NC(=O)CNC(=O)c4cccc(C(F)(F)F)c4)C3)CC2)nc1 (stereo not shown) [Example 15, N-({1-[4-(5-Methanesulfonyl-amino-pyridin-2-yl)-cyclohexyl]-azetidin-3-ylcarbamoyl}-methyl)-3-trifluoromethyl-benzamide]	230
Cc1cc(C2CCC(N3CC(NC(=O)CNC(=O)c4cccc(C(F)(F)F)c4)C3)CC2)c[nH]c1=O (single isomer, unassigned) [Example 44a, N-({1-[4-(5-Methyl-6-oxo-1,6-dihydro-pyridin-3-yl)-cyclohexyl]-azetidin-3-ylcarbamoyl}-methyl)-3-trifluoromethyl-benzamide]	250
Cn1cccc(C2CCC(N3CC(NC(=O)CNC(=O)c4cccc(C(F)(F)F)c4)C3)CC2)c1=O (stereo not shown) [Example 48, N-({1-[4-(1-Methyl-2-oxo-1,2-dihydro-pyridin-3-yl)-cyclohexyl]-azetidin-3-ylcarbamoyl}-methyl)-3-trifluoromethyl-benzamide]	630
O=C(CNC(=O)c1cccc(C(F)(F)F)c1)NC1CN(C2CCC(c3noc(N4CCCC4)n3)CC2)C1 (mixture of isomers) [Example 59, N-({1-[4-(5-Pyrrolidin-1-yl-[1,2,4]oxadiazol-3-yl)-cyclohexyl]-azetidin-3-ylcarbamoyl}-methyl)-3-trifluoromethyl-benzamide]	400
O=C(CNC(=O)c1cccc(C(F)(F)F)c1)NC1CN(C2CCC(c3ncccc3O)CC2)C1 (stereo not shown) [Example 3, N-({1-[4-(3-Hydroxy-pyridin-2-yl)-cyclohexyl]-azetidin-3-ylcarbamoyl}-methyl)-3-trifluoromethyl-benzamide]	24
Cc1cc(=O)[nH]c(C2CCC(N3CC(NC(=O)CNC(=O)c4cccc(C(F)(F)F)c4)C3)CC2)n1 (mixture of isomers) [Example 60, N-({1-[4-(4-Methyl-6-oxo-1,6-dihydro-pyrimidin-2-yl)-cyclohexyl]-azetidin-3-ylcarbamoyl}-methyl)-3-trifluoromethyl-benzamide]	3900
NC(=O)c1ncc(C2CCC(N3CC(NC(=O)CNC(=O)c4cccc(C(F)(F)F)c4)C3)CC2)s1 (stereo not shown) [Example 53, 5-(4-{3-[2-(3-Trifluoromethyl-benzoylamino)-acetylamino]-azetidin-1-yl}-cyclohexyl)-thiazole-2-carboxylic acid amide]	1000
Nc1cncc(C2CCC(N3CC(NC(=O)CNC(=O)c4cccc(C(F)(F)F)c4)C3)CC2)c1 (stereo not shown) [Example 32, N-({1-[4-(5-Amino-pyridin-3-yl)-cyclohexyl]-azetidin-3-ylcarbamoyl}-methyl)-3-trifluoromethyl-benzamide]	320
Nc1cccc(C2CCC(N3CC(NC(=O)CNC(=O)c4cc(F)cc(C(F)(F)F)c4)C3)CC2)n1 (stereo not shown) [Example 34, N-({1-[4-(6-Amino-pyridin-2-yl)-cyclohexyl]-azetidin-3-ylcarbamoyl}-methyl)-3-fluoro-5-trifluoromethyl-benzamide]	120
